For data set [1] the following is noted: oral intake; cited from earlier work.
Data set [2] relates to acute liver failure induced by acetaminophen (APAP). In words: ALT assay in mouse models of APAP-induced acute liver failure. In kind it is in vivo. The conditions noted are these: 10 ug of free PEN, 1 hour before APAP. The protocol: On the assumption that the PAOX polymers rapidly deliver drugs to the cytoplasm due to high hydrolysis rate and proton sponge effects, which leads to more rapid treatment, mouse models of acute liver failure (ALF) were used as experimental models, and pentoxifylline (PEN) was used as a drug model.
In order to investigate the cytotoxicity of PAOX-PEN particles prepared by the method as described in the above section 7, a tetrazolium-based colorimetric MTT assay was performed. Moreover, an alanine transaminase (ALT) assay, which is mainly used for evaluation of liver functions, was performed to evaluate the effect of PAOX-PEN particles in terms of the amount of drug loaded in PAOX-PEN particles and daily dosages.
6-week-old BALB/c female mice were used for the experiments and classified into each group. The PAOX-PEN particles were dispersed in 10 mg/mL (PBS), and each of 50 μL, 100 μL, and 200 μL of the resulting solution was injected into mouse tail veins. In the case of free PEN, the drug solution was administered with the calculation of dose and, only PBS was administered to the negative control groups. After 1 hour, 200 μL of APAP in a concentration of 25 mg/mL was injected intraperitoneally to induce acute liver failure. The mice were sacrificed 10 hours later, and blood was taken from the heart. […]

A further data set relates to RAW 264.7 cells. Briefly: Catalase delivery: PMA-induced hydrogen peroxide, DCFH-DA fluorescence by flow cytometry. In kind it is cell-based. As to conditions: pretreatment 12 hours, then PMA stimulation. The protocol: To investigate the ability of PAOX particles to deliver protein drugs, catalase was used as a model protein drug. RAW 264.7 cells (1×10^6 cells) were pretreated with catalase, catalase-loaded PAOX particles, catalase-loaded PLGA particles or empty PAOX particles for 12 hours and then stimulated with 1 μg of PMA (phorbol-12-myristate-13-acetate) to induce the production of hydrogen peroxide. PMA was used to stimulate cells for the production of reactive oxygen species including hydrogen peroxide. Then, DCFH-DA (dichlorofluorescin-diacetate) was added to each well and incubated for 30 minutes. The efficacy of PAOX particles to deliver catalase to cells was evaluated by measuring the intensity of the fluorescence produced by DCFH-DA with a flow cytometry caliber (Becton Dickinson, US).

For `OCC1CCC(CO)CC1` (stereo not drawn) [1,4-cyclohexanedimethanol], the LD50 in data set [1] is listed as 3,200 mg/kg.

As for `CC(=O)CCCCn1c(=O)c2c(ncn2C)n(C)c1=O` [free PEN, pentoxifylline], the ALT reduction effect result in data set [2] is reported as “no ALT reduction effects”.

B1: catalase (protein, UniProt P00432 2-527, looked up)
Catalase: ADNRDPASDQMKHWKEQRAAQKPDVLTTGGGNPVGDKLNSLTVGPRGPLLVQDVVFTDEMAHFDRERIPERVVHAKGAGAFGYFEVTHDITRYSKAKVFEHIGKRTPIAVRFSTVAGESGSADTVRDPRGFAVKFYTEDGNWDLVGNNTPIFFIRDALLFPSFIHSQKRNPQTHLKDPDMVWDFWSLRPESLHQVSFLFSDRGIPDGHRHMNGYGSHTFKLVNANGEAVYCKFHYKTDQGIKNLSVEDAARLAHEDPDYGLRDLFNAIATGNYPSWTLYIQVMTFSEAEIFPFNPFDLTKVWPHGDYPLIPVGKLVLNRNPVNYFAEVEQLAFDPSNMPPGIEPSPDKMLQGRLFAYPDTHRHRLGPNYLQIPVNCPYRARVANYQRDGPMCMMDNQGGAPNYYPNSFSAPEHQPSALEHRTHFSGDVQRFNSANDDNVTQVRTFYLKVLNEEQRKRLCENIAGHLKDAQLFIQKKAVKNFSDVHPEYGSRIQALLDKYNEEKPKNAVHTYVQHGSHLSAREKANL
For B1, in the data set with RAW 264.7 cells, the “inhibitory effect on PMA-induced fluorescence” value is “no inhibitory effects”.

The values are drawn from patent publication US8920793B2, “Biodegradable PAOX polymer particle with cationic property” (Industrial Cooperation Foundation Chonbuk National …, priority 2011, dated 2014).
